Reference: patent US20220334127A1, “IN VITRO METHOD FOR OBTAINING CLINICAL DATA IN PATIENTS SUFFERING FROM AN INFLAMMATORY DISEASE” (FUNDACIÓN PARA LA FORMACIÓN E INVESTIGACIÓN SANITARIAS DE …, priority 2019, published 2022)

Legend:
NLRP3 inflammasome [1] = test: IL-1β release from BMDMs pre-treated, washed, LPS-primed and stimulated with nigericin; assay type: cell-based, mouse; conditions: for IL-1β release after mitochondrial depolarizing agent: wild type or P2rx7−/− BMDMs, antimycin A 5 μM or FCCP 1 μM 30 min, then LPS 1 μg/ml 4 h, nigericin 10 μM 30 min (FIG. 6d)
Experimental: FIG. 6. P2X7 receptor stimulation induces an impairment of the NLRP3 inflammasome in monocytes. (a-b) Percentage of monocytes with ASC-specks (a) and release of […] from PBMCs (b) isolated from healthy donor blood samples treated with ATP (3 mM, 30 min; ATP-pre), then washed and primed with or without LPS (1 μg/ml, 2 h) and then treated for 20 min with ATP (3 mM; ATP-post) or nigericin (10 μM) as indicated. (c) IL-1β release from wild type or P2rx7^−/− BMDMs treated as in a, but with 4 h LPS priming and 30 min of ATP or nigericin. (d) IL-1β release from wild type or P2rx7^−/− BMDMs treated for 30 min with antimycin A (5 μM) or FCCP (1 μM) and then washed and primed with LPS (1 μg/ml, 4 h) and then stimulated with nigericin (10 μM, 30 min) as indicated. (e) Expression of Nrlp3 and Illb genes analyzed by quantitative PCR from wild type or P2rx7^−/− BMDMs treated with ATP (3 mM, 30 min; ATP-pre), then washed and primed with or without LPS (100 ng/ml, 4 h). (f) Kaplan-Meier representation of wild type (top) or P2rx7^−/− (bottom) mice survival after sham operation (dotted line), or CLP operation (continuous line); some mice groups were i.p. injected with ATP (0.5 mg/g) 30 min before operation (dashed lines). Wild type CLP n=10, CLP+ATP n=8, sham n=4, sham+ATP n=4; P2rx7^−/− CLP n=4, CLP+ATP n=6, sham n=3. (g) IL-1β from peritoneal lavage (left) or bacterial load in blood (right) from wild type sham, CLP or CLP+ATP mice after 24 h. Each dot represents a single independent experiment (c,d), a sample from an individual healthy donor (a,b,e) or a single mouse (g); average±standard error is represented in panels a-e,g; *p<0.05; **p<0.01; ns, no significant difference (p>0.05); Mann-Whitney test was used for a,b,d,e; Kruskal-Wallis test was used for c; Long-rank test for f.
(§1) FIG. 7. Mitochondrial dysfunction mediates P2X7 receptor induced NLRP3 inflammasome impairment. (a) Mitochondrial membrane depolarization in BMDMs treated with ATP (3 mM, 30 min), then washed out and incubated for the indicated times in the absence or presence of LPS (1 μg/ml) as indicated. […] (e) Representative histogram plot of HIF-1α staining (left) or quantification of HIF-1α mean intensity fluorescence increase (ΔMFI, right) in monocytes isolated from healthy donor blood samples and treated or not with ATP (1 mM, 30 min) in the presence or absence of AZ11645373 (10 μM) or PDTC (10 μM), and then washed and cultured for 2 h; non-stained monocytes (light grey, left). […] (g) Expression of HIF1A gene analyzed by quantitative PCR from control surgery group and septic patients PBMCs; septic patients are separated into NLRP3 non-immunocompromised (grey bar) and immunocompromised (black bar). […]

HIF-1α = HIF-1α staining in human monocytes by flow cytometry; assay type: cell-based; conditions: ATP 1 mM 30 min; for HIF-1α expression by the agent itself: washed, cultured 2 h (FIG. 7e); for HIF-1α expression induced by ATP treatment: AZ11645373 10 μM or PDTC 10 μM (FIG. 7e)
Experimental: Human peripheral blood mononuclear cells (PBMCs) were isolated from blood within one hour after extraction using Ficoll histopaque 1077 (Sigma-Aldrich). […] Cells were treated with ATP (Sigma-Aldrich), antimycin A (Sigma-Aldrich) or FCCP (Sigma-Aldrich) in the presence or absence of PDTC (Sigma-Aldrich) or echinomycin (Sigma-Aldrich) in E-total buffer (147 mM NaCl, 10 mM HEPES, 13 mM glucose, 2 mM CaCl2), 1 mM MgCl2, and 2 mM KCl) and then washed and stimulated with E. coli LPS O55:B5 in their respective complete media. […] After LPS treatment, cells were incubated with P2X7 modulating nanobodies, the specific P2X7 receptor antagonist A438079 or AZ11645373 (Tocris), and then subsequently stimulated with ATP or nigericin (Sigma-Aldrich) in E-total buffer. Times and concentrations for the reagents used are specified in the figure legends.
HIF-1α expression was detected in CD14^+ monocytes using Alexa Fluor-647 mouse anti-human HIF-1α (BD Biosciences, Clone 54) at 1:1000 dilution.

Cell death (LDH assay) = assay type: cell-based
Experimental: Presence of LDH in cell-free supernatants was measured using the Cytotoxicity Detection kit (Roche) following the manufacturer's instructions.

Nlrp3 and Illb = test: Quantitative PCR of Nlrp3 and Il1b gene induction by LPS; assay type: cell-based, mouse
Experimental: FIG. 6. P2X7 receptor stimulation induces an impairment of the NLRP3 inflammasome in monocytes. (a-b) Percentage of monocytes with ASC-specks (a) and release of […] from PBMCs (b) isolated from healthy donor blood samples treated with ATP (3 mM, 30 min; ATP-pre), then washed and primed with or without LPS (1 μg/ml, 2 h) and then treated for 20 min with ATP (3 mM; ATP-post) or nigericin (10 μM) as indicated. (c) IL-1β release from wild type or P2rx7^−/− BMDMs treated as in a, but with 4 h LPS priming and 30 min of ATP or nigericin. (d) IL-1β release from wild type or P2rx7^−/− BMDMs treated for 30 min with antimycin A (5 μM) or FCCP (1 μM) and then washed and primed with LPS (1 μg/ml, 4 h) and then stimulated with nigericin (10 μM, 30 min) as indicated. (e) Expression of Nrlp3 and Illb genes analyzed by quantitative PCR from wild type or P2rx7^−/− BMDMs treated with ATP (3 mM, 30 min; ATP-pre), then washed and primed with or without LPS (100 ng/ml, 4 h). […]
Detailed methods used for qRT-PCR have been described in the prior art. Relative gene expression levels were calculated using the 2^−ΔCt method normalizing to Hprt1 expression as endogenous control.

BMDMs = test: ATP-induced mitochondrial membrane depolarization in BMDMs with or without antioxidant; assay type: cell-based, mouse; conditions: ATP 3 mM 30 min, PDTC 40 μM (FIG. 7c)
Experimental: as §1, with “indicated. (b) IL-1β release from wild-type BMDMs treated as in a, but after LPS priming cells were stimulated with nigericin (10 μM, 30 min). (c) Mitochondrial membrane depolarization in BMDMs treated with ATP (3 mM, 30 min) in the presence or absence pyrrolidine dithiocarbamate (PDTC, 40 μM).” for “indicated.”

NLRP3 inflammasome [2] = test: IL-1β release from PBMCs of healthy donors pre-treated with ATP, LPS-primed and stimulated with nigericin; assay type: cell-based; conditions: human PBMCs, ATP-pre 1 mM 30 min with PDTC 10 μM, LPS 1 μg/ml 4 h, nigericin 10 μM 30 min (FIG. 7d)
Experimental: as §1, with “indicated. (b) IL-1β release from wild-type BMDMs treated as in a, but after LPS priming cells were stimulated with nigericin (10 μM, 30 min). (c) Mitochondrial membrane depolarization in BMDMs treated with ATP (3 mM, 30 min) in the presence or absence pyrrolidine dithiocarbamate (PDTC, 40 μM).” for “indicated.”

Row | Compound | IL-1β release after mitochondrial depolarizing agent (NLRP3 inflammasome [1]) | HIF-1α expression by the agent itself (HIF-1α) | cell death (Cell death (LDH assay)) | HIF-1α expression induced by ATP treatment (HIF-1α) | further results
1 | CS[C@H]1SC[C@H]2C(=O)N(C)[C@@H](C(C)C)C(=O)OC[C@@H](NC(=O)c3cnc4ccccc4n3)C(=O)N[C@@H](C)C(=O)N(C)[C@@H]1C(=O)N(C)[C@@H](C(C)C)C(=O)OC[C@@H](NC(=O)c1cnc3ccccc3n1)C(=O)N[C@@H](C)C(=O)N2C [echinomycin] |  |  |  |  | production of IL-1β after ATP stimulation before LPS-priming and NLRP3 stimulation (NLRP3 inflammasome [1]; BMDMs, ATP-pre 3 mM 30 min with echinomycin 5 nM, LPS 1 μg/ml 4 h, nigericin 10 μM 30 min (FIG. 7f)): restored
2 | N#CC(C#N)=NNc1ccc(OC(F)(F)F)cc1 [FCCP] | reduced | did not increase | did not induce cell death |  | 
3 | O=C1CSC(=O)N1C(CCc1ccncc1)COc1ccc(-c2cccc([N+](=O)[O-])c2)cc1 (stereo not drawn) [AZ116] |  |  |  | able to prevent it | 
4 | antimycin A | reduced | did not increase | did not induce cell death |  | Nlrp3 and Illb gene induction by LPS (Nlrp3 and Illb): reduced
5 | S=C(S)N1CCCC1 [PDTC, pyrrolidine dithiocarbamate] |  |  |  | able to prevent it | ATP-induced mitochondrial membrane depolarization (BMDMs): able to protect; production of IL-1β after ATP stimulation before LPS-priming and NLRP3 activation (NLRP3 inflammasome [2]): restored
